Experimental findings from paper doi:10.1101/2023.08.31.555806v1 (biorxiv, 2023) are described below.

For the experiment, the target named is T1, VraS (GST-VraS) (Staphylococcus aureus, UniProt Q7A2Q0).
T1 sequence (Q7A2Q0 1-347): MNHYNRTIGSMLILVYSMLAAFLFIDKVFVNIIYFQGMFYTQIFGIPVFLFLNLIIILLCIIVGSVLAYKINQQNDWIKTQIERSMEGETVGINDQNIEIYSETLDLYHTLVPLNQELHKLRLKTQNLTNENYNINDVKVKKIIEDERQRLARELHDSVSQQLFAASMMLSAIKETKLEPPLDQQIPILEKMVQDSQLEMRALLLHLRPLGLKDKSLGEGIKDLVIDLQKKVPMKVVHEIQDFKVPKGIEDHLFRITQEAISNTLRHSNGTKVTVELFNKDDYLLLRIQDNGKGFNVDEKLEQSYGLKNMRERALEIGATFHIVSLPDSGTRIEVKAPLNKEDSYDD
Description: ATPase activity, pyruvate kinase/lactate dehydrogenase-coupled NADH fluorescence. The experiment is classed as biochemical.

As for `CCSc1nc2ccc(NC(=O)NC(c3cc(C)ccn3)C3CC3)cc2o1` (stereo not shown) [compound 1, 1-(cyclopropyl(4-methylpyridin-2-yl)methyl)-3-(2-(ethylthio)benzo[d]oxazol-6-yl)urea], the IC50 turned out to be 940 ± 290 nM.

The IC50 is the concentration needed to halve the response being measured.
